Tested on: Multidrug resistance-associated protein 1
Test: TP_TRANSPORTER: drug resistance in MRP1-expressing HEK293 cells
Type: functional, cell-based
Settings: human

Activity | SMILES
substrate [] | COc1cccc2c1C(=O)c1c(O)c3c(c(O)c1C2=O)C[C@@](O)(C(=O)CO)C[C@@H]3O[C@H]1C[C@H](N)[C@H](O)[C@H](C)O1 [DOXORUBICIN]
substrate [] | CC[C@]1(O)C[C@H]2CN(CCc3c([nH]c4ccccc34)[C@@](C(=O)OC)(c3cc4c(cc3OC)N(C=O)[C@H]3[C@@](O)(C(=O)OC)[C@H](OC(C)=O)[C@]5(CC)C=CCN6CC[C@]43[C@@H]65)C2)C1 [VINCRISTINE]
substrate [] | COc1cccc2c1C(=O)c1c(O)c3c(c(O)c1C2=O)C[C@@](O)(C(=O)CO)C[C@@H]3O[C@H]1C[C@H](N)[C@@H](O)[C@H](C)O1 [EPIRUBICIN]
substrate [] | COc1cc([C@@H]2c3cc4c(cc3[C@@H](O[C@@H]3O[C@@H]5CO[C@@H](C)O[C@H]5[C@H](O)[C@H]3O)[C@H]3COC(=O)[C@H]23)OCO4)cc(OC)c1O [ETOPOSIDE]
